# Assay results taken from paper PMC9917264, “Ca^2+-Triggered Coelenterazine-Binding Protein Renilla: Expected and Unexpected Features” (International Journal of Molecular Sciences, 2023).
# Target: T1, coelenterazine-binding apoprotein (apoCBP) (Renilla muelleri, UniProt C9V488)
# T1 construct: gene CBP1; recombinant apoprotein, single chain, 21 kDa
# T1 sequence (C9V488 1-186): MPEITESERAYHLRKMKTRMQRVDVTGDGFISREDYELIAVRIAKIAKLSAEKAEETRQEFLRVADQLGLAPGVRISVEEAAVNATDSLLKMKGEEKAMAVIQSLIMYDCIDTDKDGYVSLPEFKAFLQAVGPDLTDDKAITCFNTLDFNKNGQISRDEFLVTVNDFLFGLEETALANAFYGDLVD
# Assay: absorption spectrum of the CBP complex
# Conditions: Ca2+-free; noncovalent
smiles,measurement,value
Oc1ccc(Cc2nc3c(Cc4ccccc4)nc(-c4ccc(O)cc4)cn3c2O)cc1 [coelenterazine],absorption spectrum of the CBP complex,FMZ-apoCBP and CBP spectra obtained under the same conditions are practically identical
